Results published in ChEMBL document CHEMBL4483862, “Open-source discovery of chemical leads for next-generation chemoprotective antimalarials” (2018).

Tested on: Plasmodium berghei
Assay: Luciferase/luciferin-expressing antifolate-resistant parasites were used to infect a culture of HepG2 cells that were pre-incubated with compounds. Infected hepatocytes emit light due to the luciferase reaction. Assay results are presented as the percent inhibition of light emission compared to control. […]
Format: functional
Details: sporozoite; for IC90: read-out: LUCIFERASE INFECTION ASSAY - IC90

Compound	IC90 [µM]	further results
CC1(C)C=Cc2cc(/C(N)=N/OC(=O)c3ccccc3)ccc2O1	0.211	IC50 (FFLUC_HILL_SLOPE 1.86, FFLUC_R_SQUARED 0.604, PBLUC_HILL_SLOPE 0.872, PBLUC_R_SQUARED 0.782, read-out: LUCIFERASE INFECTION ASSAY - IC50): 0.0169 µM
Cc1ccc(-n2c(SCCCC(=O)c3cccs3)nnc2-c2ccccc2)cc1C	> 10	IC50 (FFLUC_HILL_SLOPE 1.75, FFLUC_R_SQUARED 0.116, read-out: LUCIFERASE INFECTION ASSAY - IC50): > 10 µM
Nc1c(C(=O)Nc2cc(Cl)cc(Cl)c2)sc(Nc2ccccc2)c1C(=O)Nc1ccc(Cl)cc1	> 10	IC50 (FFLUC_HILL_SLOPE 1.81, FFLUC_R_SQUARED 0.586, read-out: LUCIFERASE INFECTION ASSAY - IC50): > 10 µM
Cc1csc(-n2c(C)cc(C(=O)CSc3nc(N)cc(N)n3)c2C)n1	> 10	IC50 (FFLUC_HILL_SLOPE 1.79, FFLUC_R_SQUARED 0.665, read-out: LUCIFERASE INFECTION ASSAY - IC50): > 10 µM
N#Cc1cc(Cl)ccc1N1C(=O)C=CC1=O	> 14.2	IC50 (FFLUC_HILL_SLOPE 1.82, FFLUC_R_SQUARED 0.838, PBLUC_HILL_SLOPE 13, PBLUC_R_SQUARED 0.372, read-out: LUCIFERASE INFECTION ASSAY - IC50): 13.6 µM
Cc1ccc(Cl)cc1N1C(=O)C=CC1=O	> 14.9	IC50 (FFLUC_HILL_SLOPE 1.79, FFLUC_R_SQUARED 0.452, HEPG2TOX_HILL_SLOPE 16.8, HEPG2TOX_R_SQUARED 0.904, PBLUC_HILL_SLOPE 2.51, PBLUC_R_SQUARED 0.543, read-out: LUCIFERASE INFECTION ASSAY - IC50): 6.7 µM
Cc1ccc(-n2c(SC(C)C(=O)NCCc3cccs3)nnc2-c2ccccc2F)cc1 (configuration not stated)	> 10	IC50 (FFLUC_HILL_SLOPE 1.87, FFLUC_R_SQUARED 0.282, HEPG2TOX_HILL_SLOPE 0.0378, HEPG2TOX_R_SQUARED 0.0131, PBLUC_HILL_SLOPE 12.6, PBLUC_R_SQUARED 0.129, read-out: LUCIFERASE INFECTION ASSAY - IC50): > 10 µM
Oc1c(C(c2ccc(Br)cc2)N2CCCC2)cc(Cl)c2cccnc12 (configuration not stated)	4.01	IC50 (FFLUC_HILL_SLOPE 1.86, FFLUC_R_SQUARED 0.64, HEPG2TOX_HILL_SLOPE 1.66, HEPG2TOX_R_SQUARED 0.745, PBLUC_HILL_SLOPE 3.81, PBLUC_R_SQUARED 0.789, read-out: LUCIFERASE INFECTION ASSAY - IC50): 2.25 µM
Cc1cc(C)c(-c2csc(NC(=O)c3ccccc3SCC(=O)NCC3CCCCC3)n2)cc1C	4.99	IC50 (FFLUC_HILL_SLOPE 1.8, FFLUC_R_SQUARED 0.211, HEPG2TOX_HILL_SLOPE 0.456, HEPG2TOX_R_SQUARED 0.807, PBLUC_HILL_SLOPE 10.4, PBLUC_R_SQUARED 0.477, read-out: LUCIFERASE INFECTION ASSAY - IC50): 4.04 µM
O=C(Nc1ccccc1N1CCOCC1)c1ccc2noc(-c3ccccc3)c2c1	> 10	IC50 (FFLUC_HILL_SLOPE 1.87, FFLUC_R_SQUARED 0.584, PBLUC_HILL_SLOPE 3.85, PBLUC_R_SQUARED 0.483, read-out: LUCIFERASE INFECTION ASSAY - IC50): 7.96 µM
CC1C/C(=C/c2ccc(Cl)cc2)C2=NN(C(=O)c3ccc4ncccc4c3)C(c3ccc(Cl)cc3)C2C1 (configuration not stated)	6.04	IC50 (FFLUC_HILL_SLOPE 1.77, FFLUC_R_SQUARED 0.609, HEPG2TOX_HILL_SLOPE 4.89, HEPG2TOX_R_SQUARED 0.557, PBLUC_HILL_SLOPE 71.4, PBLUC_R_SQUARED 0.509, read-out: LUCIFERASE INFECTION ASSAY - IC50): 5.86 µM
O=c1c2ccsc2ncn1CCS(=O)(=O)N1CCN(C(c2ccc(F)cc2)c2ccc(F)cc2)CC1	> 10	IC50 (FFLUC_HILL_SLOPE 1.84, FFLUC_R_SQUARED 0.406, PBLUC_HILL_SLOPE 0.263, PBLUC_R_SQUARED 0.514, read-out: LUCIFERASE INFECTION ASSAY - IC50): 1.49 µM
c1coc(-c2c3c(nc4c2oc2ccccc24)CCCCCCCCCC3)c1	> 10	IC50 (FFLUC_HILL_SLOPE 1.77, FFLUC_R_SQUARED 0.636, read-out: LUCIFERASE INFECTION ASSAY - IC50): > 10 µM
CSc1sc(-c2nc(C)cs2)c(C)c1-c1ccnc(SCc2c(Cl)cccc2Cl)n1	> 6.46	IC50 (FFLUC_HILL_SLOPE 1.79, FFLUC_R_SQUARED 0.514, read-out: LUCIFERASE INFECTION ASSAY - IC50): > 6.46 µM
O=[N+]([O-])c1ccc(N/N=C2\CCSc3ccc(Cl)cc32)cc1	9.78	IC50 (FFLUC_HILL_SLOPE 1.76, FFLUC_R_SQUARED 0.654, HEPG2TOX_HILL_SLOPE 8.57, HEPG2TOX_R_SQUARED 0.177, PBLUC_HILL_SLOPE 41.5, PBLUC_R_SQUARED 0.423, read-out: LUCIFERASE INFECTION ASSAY - IC50): 9.27 µM
O=C(Nc1ccc(N2CCCC2)cn1)c1cccc(Cl)c1	0.145	IC50 (FFLUC_HILL_SLOPE 1.87, FFLUC_R_SQUARED 0.554, HEPG2TOX_HILL_SLOPE 1.22, HEPG2TOX_R_SQUARED 0.956, PBLUC_HILL_SLOPE 1.63, PBLUC_R_SQUARED 0.915, read-out: LUCIFERASE INFECTION ASSAY - IC50): 0.0377 µM

Compound	IC90 [µM]	further results
O=C(NC(c1ccccc1)C1CC1)c1cccc(S(=O)(=O)N2CCN(c3ccc(F)cc3)CC2)c1 (configuration not stated)	> 10	IC50 (FFLUC_HILL_SLOPE 1.82, FFLUC_R_SQUARED 0.654, PBLUC_HILL_SLOPE 3.16, PBLUC_R_SQUARED 0.76, read-out: LUCIFERASE INFECTION ASSAY - IC50): 7.34 µM
CC(C)NS(=O)(=O)c1ccc(NC(=S)NC(=O)C(c2ccccc2)c2ccccc2)cc1	> 10	IC50 (FFLUC_HILL_SLOPE 1.86, FFLUC_R_SQUARED 0.596, HEPG2TOX_HILL_SLOPE 15.1, HEPG2TOX_R_SQUARED 0.768, PBLUC_HILL_SLOPE 9.02, PBLUC_R_SQUARED 0.275, read-out: LUCIFERASE INFECTION ASSAY - IC50): 8.35 µM
CCOc1ccc(-c2n[nH]c(C)c2Oc2ccccc2Br)c(O)c1	> 8.48	IC50 (FFLUC_HILL_SLOPE 1.83, FFLUC_R_SQUARED 0.626, read-out: LUCIFERASE INFECTION ASSAY - IC50): > 8.48 µM
CCN(CC)Cc1ccc(OCC(=O)Nc2ccc(Cl)cc2)c2ncccc12	> 10	IC50 (FFLUC_HILL_SLOPE 1.82, FFLUC_R_SQUARED 0.795, HEPG2TOX_HILL_SLOPE 1.24, HEPG2TOX_R_SQUARED 0.929, read-out: LUCIFERASE INFECTION ASSAY - IC50): > 10 µM
Cc1cc(O)c(C(C)C)cc1NC1=NC(=O)S/C1=C\c1ccccc1OCC(=O)Nc1ccc(Cl)cc1	9.08	IC50 (FFLUC_HILL_SLOPE 1.8, FFLUC_R_SQUARED 0.548, PBLUC_HILL_SLOPE 29.3, PBLUC_R_SQUARED 0.485, read-out: LUCIFERASE INFECTION ASSAY - IC50): 8.43 µM
O=C1C=C(Nc2ccccc2)/C(=N\c2ccccc2)c2c1oc1ccc(Nc3ccccc3)cc21	> 10	IC50 (FFLUC_HILL_SLOPE 1.75, FFLUC_R_SQUARED 0.754, HEPG2TOX_HILL_SLOPE 1.61, HEPG2TOX_R_SQUARED 0.885, read-out: LUCIFERASE INFECTION ASSAY - IC50): > 10 µM
CCOc1ccc(C(C)=O)cc1COC(=O)c1cc(-c2cccc3ccccc23)nc2ccccc12	> 10	IC50 (FFLUC_HILL_SLOPE 1.76, FFLUC_R_SQUARED 0.222, read-out: LUCIFERASE INFECTION ASSAY - IC50): > 10 µM
Cc1[nH]c2ccccc2c1C(=O)C(C)OC(=O)c1c2c(nc3ccccc13)/C(=C/c1cccc([N+](=O)[O-])c1)CCC2 (configuration not stated)	> 10	IC50 (FFLUC_HILL_SLOPE 1.81, FFLUC_R_SQUARED 0.362, PBLUC_HILL_SLOPE 3.43, PBLUC_R_SQUARED 0.216, read-out: LUCIFERASE INFECTION ASSAY - IC50): 6.23 µM
COc1c(Cl)cc([N+](=O)[O-])c(OC)c1C(=O)NC(=O)Nc1cc(Cl)cc(Cl)c1	> 7.36	IC50 (FFLUC_HILL_SLOPE 1.87, FFLUC_R_SQUARED 0.625, PBLUC_HILL_SLOPE 21.1, PBLUC_R_SQUARED 0.112, read-out: LUCIFERASE INFECTION ASSAY - IC50): 6.88 µM
CCOC(=O)c1ccc(Oc2c[nH]nc2-c2ccc(OC)cc2O)cc1	> 9.31	IC50 (FFLUC_HILL_SLOPE 1.78, FFLUC_R_SQUARED 0.28, read-out: LUCIFERASE INFECTION ASSAY - IC50): > 9.31 µM
Fc1ccc2c(c1)C(Nc1nc(-c3cccnc3)nc3ccccc13)CCS2 (configuration not stated)	4.27	IC50 (FFLUC_HILL_SLOPE 1.8, FFLUC_R_SQUARED 0.403, PBLUC_HILL_SLOPE 13.2, PBLUC_R_SQUARED 0.43, read-out: LUCIFERASE INFECTION ASSAY - IC50): 3.62 µM
Cc1ccc(S(=O)(=O)c2nc(/C=C3\N(C)c4ccccc4C3(C)C)sc2Cl)cc1	> 10	IC50 (FFLUC_HILL_SLOPE 1.82, FFLUC_R_SQUARED 0.745, read-out: LUCIFERASE INFECTION ASSAY - IC50): > 10 µM
Cc1ccc(COC(=O)c2c(Cl)nc3sccn23)cc1	0.397	IC50 (FFLUC_HILL_SLOPE 1.77, FFLUC_R_SQUARED 0.868, HEPG2TOX_HILL_SLOPE 1.9, HEPG2TOX_R_SQUARED 0.904, PBLUC_HILL_SLOPE 1.95, PBLUC_R_SQUARED 0.73, read-out: LUCIFERASE INFECTION ASSAY - IC50): 0.129 µM
Cc1cc(C(=O)CSc2nc3ccccc3c(=O)n2-c2ccc(OC(F)F)cc2)c(C)n1-c1ccc(F)c(Cl)c1	> 10	IC50 (FFLUC_HILL_SLOPE 1.77, FFLUC_R_SQUARED 0.792, PBLUC_HILL_SLOPE 12.5, PBLUC_R_SQUARED 0.0853, read-out: LUCIFERASE INFECTION ASSAY - IC50): 9.61 µM
COc1ccc(-c2cnc(N)c(-c3ccc(O)c(OC)c3)c2)cn1	3.7	IC50 (FFLUC_HILL_SLOPE 1.75, FFLUC_R_SQUARED 0.121, PBLUC_HILL_SLOPE 11, PBLUC_R_SQUARED 0.572, read-out: LUCIFERASE INFECTION ASSAY - IC50): 3.03 µM
